Key:
intracellular CK2α = molecular target: T1, intracellular CK2α (Homo sapiens, UniProt P19784); assay: Cell-based NanoBRET assay for inhibitor binding to intracellular CK2α; details: HCT116 cells transiently transfected with CSNK2A2-NanoLuc fusion vector; Tracer K-5; 2 h; read-out: Assay 3: NanoBRET ™ assay for binding to intracellular CK2α
T1 construct: host or cells: HCT116 (ATCC CCL-247)
Experimental: This assay used the NanoBRET™ System (Promega), an energy transfer technique designed to measure molecular proximity in living cells. The assay measured the apparent affinity of test compounds by competitive displacement of a NanoBRET™ tracer reversibly bound to a NanoLucR luciferase CK2α fusion protein in cells. A fixed concentration of tracer was added to cells expressing the desired NanoLucR-CK2α fusion protein to generate a BRET reporter complex. […] Donor emission wavelength (450 nm) and acceptor emission wavelength (610 nm or 630 nm) were measured on the Envision (Perkin-Elmer) and BRET ratio calculated for data analysis: BRET Ratio=(Acceptorsample/Donorsample)×1,000. • 7.

CK2α = molecular target: T2, CK2α (Homo sapiens, UniProt P68400); assay: Biochemical assay for inhibitors of CK2α kinase activity (ADP-Glo); details: 0.2 nM CK2α, 50 μM peptide substrate, 15 μM ATP, read-out: Assay 1: CK2α Enzyme IC50
T2 construct: CK2α (residues 2-329) was produced in Escherichia coli BL21 (DE3) for kinase activity screening; His6 (N, cleaved yes); made in house; host or cells: Escherichia coli BL21 (DE3)
T2 sequence (P68400 2-329): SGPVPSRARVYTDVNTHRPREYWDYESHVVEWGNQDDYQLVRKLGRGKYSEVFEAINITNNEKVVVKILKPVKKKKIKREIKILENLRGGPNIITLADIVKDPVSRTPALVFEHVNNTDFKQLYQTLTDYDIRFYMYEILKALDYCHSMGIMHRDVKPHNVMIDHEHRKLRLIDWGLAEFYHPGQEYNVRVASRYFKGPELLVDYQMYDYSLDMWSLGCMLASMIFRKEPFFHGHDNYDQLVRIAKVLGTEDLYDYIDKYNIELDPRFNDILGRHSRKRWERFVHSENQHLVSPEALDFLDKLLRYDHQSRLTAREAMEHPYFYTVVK
Experimental: The inhibitory activity of putative kinase inhibitors and the potency of selected compounds were determined using ADP-Glo™ assay. The kinase reaction was performed in the presence of excess peptide substrate and ATP at a concentration equivalent to Km. Upon termination of the kinase reaction, remaining ATP was depleted leaving only ADP reaction product, which was converted back to ATP with a coupled luciferin/luciferase reaction. The luminescent output from the coupled reaction was quantified and correlated with the kinase activity. […] Single colonies of the cells were grown in 6×1 L of 2×TY with 100 μg/mL ampicillin at 37° C. […] The cells were incubated overnight at 25° C. then harvested by centrifugation at 4,000 g for 20 minutes. The cell pellets were suspended in 20 mM Tris, 500 mM NaCl, pH 8.0 and lysed using a high pressure homogenizer. Protease inhibitor cocktail tablets (one tablet per 50 mL extract; Roche Diagnostics) and DNase I were then added. The crude cell extract was then centrifuged at 10,000 g for 45 minutes, the supernatant was filtered with a 0.22 μm filter. The soluble supernatant was applied on a Ni Sepharose Fast Flow6 column at pH 8.0, washed and eluted in 20 mM Tris pH 8.0, 500 mM NaCl, 200 mM imidazole. […] The cleaved protein was further purified on a Sepharose Q HP anion-exchange column and the main peak fraction from this column was further purified by gel filtration on a Superdex 75 16/60 HiPrep column equilibrated with Tris 20 mM, pH 8.0, 500 mM NaCl. Pure protein was concentrated to 15 mg/mL and flash frozen in liquid nitrogen. […] The assay was conducted as follows: • 1. […] After 120 minutes, the reaction was stopped by addition of 5 pl ADP-Glo reagent (Promega V9102) and the plate incubated at RT for a further 60 minutes. • 5. 10 μL of Kinase Detection reagent (Promega V9102) was added to assay plate and incubated for a further 30 minutes prior to reading luminescence on an Envision (Perkin-Elmer). Data was analysed to calculate compound IC50and Ki as follows: • 1. […] Percent activity was calculated for each well using: (Test well reading−MEAN100%inhibition control wells)/(MEAN0% inhibition control wells−MEAN100%inhibition control wells). • 5. Morrison Ki was determined using Morrison Ki equation (XL-fit).

CLK2 = molecular target: T3, CLK2 (Homo sapiens, UniProt P49760); assay: Biochemical assay for inhibitors of CLK2 kinase activity (ADP-Glo); details: 20 nM CLK2, 50 μM peptide substrate, 100 μM ATP, read-out: Assay 2: CLK2 Enzyme IC50
T3 construct: purchased Carna Biosciences 04-127
T3 sequence (P49760 whole entry): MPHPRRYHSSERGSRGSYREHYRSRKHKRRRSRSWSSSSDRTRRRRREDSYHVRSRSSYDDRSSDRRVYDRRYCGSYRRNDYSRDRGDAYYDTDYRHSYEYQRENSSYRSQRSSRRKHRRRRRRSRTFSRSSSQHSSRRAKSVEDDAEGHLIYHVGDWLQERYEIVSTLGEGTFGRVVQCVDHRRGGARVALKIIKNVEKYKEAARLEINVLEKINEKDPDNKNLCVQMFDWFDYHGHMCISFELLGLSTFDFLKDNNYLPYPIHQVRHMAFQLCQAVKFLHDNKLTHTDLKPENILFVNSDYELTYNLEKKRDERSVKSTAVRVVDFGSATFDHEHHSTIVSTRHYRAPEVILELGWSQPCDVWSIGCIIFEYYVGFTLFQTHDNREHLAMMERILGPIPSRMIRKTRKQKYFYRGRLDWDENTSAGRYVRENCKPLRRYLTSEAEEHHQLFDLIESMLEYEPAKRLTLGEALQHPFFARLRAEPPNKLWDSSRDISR
Experimental: The inhibitory activity of putative kinase inhibitors and the potency of selected compounds were determined using ADP-GloTM assay. The kinase reaction was performed in the presence of excess peptide substrate and ATP at a concentration equivalent to Km. Upon termination of the kinase reaction, remaining ATP was depleted leaving only ADP reaction product, which was converted back to ATP with a coupled luciferin/luciferase reaction. The luminescent output from the coupled reaction was quantified and correlated with the kinase activity. […] The assay was conducted as follows: • 1. […] After 120 minutes, the reaction was stopped by addition of 5 pl ADP-Glo reagent (Promega V9102) and the plate incubated at RT for a further 60 minutes. • 5. 10 μL of Kinase Detection reagent (Promega V9102) was added to assay plate and incubated for a further 30 minutes prior to reading luminescence on an Envision (Perkin-Elmer). Data was analysed to calculate compound IC50and Ki as follows: • 1. […] Morrison Ki was determined using Morrison Ki equation (XL-fit).

T1 sequence (P19784 whole entry, the tested form may be a part): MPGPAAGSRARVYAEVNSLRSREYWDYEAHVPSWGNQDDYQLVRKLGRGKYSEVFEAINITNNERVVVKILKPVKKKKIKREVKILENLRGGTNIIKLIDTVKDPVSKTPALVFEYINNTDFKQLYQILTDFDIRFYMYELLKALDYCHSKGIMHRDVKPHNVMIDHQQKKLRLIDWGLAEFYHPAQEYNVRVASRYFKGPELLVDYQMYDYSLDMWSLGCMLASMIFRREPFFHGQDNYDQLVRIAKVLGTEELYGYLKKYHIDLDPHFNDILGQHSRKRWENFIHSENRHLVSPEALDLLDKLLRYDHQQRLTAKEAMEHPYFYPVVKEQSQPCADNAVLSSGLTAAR

Row | SMILES | IC50 (intracellular CK2α) [nM] | IC50 (CK2α) [nM] | IC50 (CLK2) [nM]
1 | N#Cc1cc(-c2cc(NCCCNC(=O)CCNCc3ccc(-c4ccccc4)c(Cl)c3)c3cn[nH]c3c2)ccn1 [Example 74, 3-(((2-chloro-[1,1′-biphenyl]-4-yl)methyl)amino)-N-(3-((6-(2-cyanopyridin-4-yl)-1H-indazol-4-yl)amino)propyl)propanamide] | 2130 | 19.7 | 10000
2 | O=C(CCNCc1ccc(-c2ccccc2)c(Cl)c1)NCCCNc1cc(-c2ccncn2)cc2[nH]ncc12 [Example 75, 3-(((2-chloro-[1,1′-biphenyl]-4-yl)methyl)amino)-N-(3-((6-(pyrimidin-4-yl)-1H-indazol-4-yl)amino)propyl)propanamide] | 76.5 | 0.89 | 404
3 | O=C(CCOCCCNCc1ccc(OC(F)(F)F)c(Cl)c1)Nc1cc(-n2cnnc2)cc2[nH]ncc12 [Example 70, N-(6-(4H-1,2,4-triazol-4-yl)-1H-indazol-4-yl)-3-(3-((3-chloro-4-(trifluoromethoxy)benzyl)amino)propoxy)propanamide] | > 50000 | 256 | 1520
4 | O=C(CCNCc1ccc(OC(F)(F)F)c(Cl)c1)NCCCNc1cc(-c2cocn2)cc2[nH]ncc12 [Example 175, 3-((3-chloro-4-(trifluoromethoxy)benzyl)amino)-N-(3-((6-(oxazol-4-yl)-1H-indazol-4-yl)amino)propyl)propanamide] | 1240 | 10.7 | 1910
5 | N#Cc1cc(NCCCNC(=O)CCNCc2ccc(-c3ccccc3)c(Cl)c2)c2cn[nH]c2c1 [Example 10, 3-(((2-chloro-[1,1′-biphenyl]-4-yl)methyl)amino)-N-(3-((6-cyano-1H-indazol-4-yl)amino)propyl)propanamide] | 449 | 6.96 | 132
6 | Cc1n[nH]cc1-c1cc(NCCCNC(=O)CCNCc2ccc(-c3ccccc3)c(Cl)c2)c2cn[nH]c2c1 [Example 27, 3-(((2-chloro-[1,1′-biphenyl]-4-yl)methyl)amino)-N-(3-((6-(3-methyl-1H-pyrazol-4-yl)-1H-indazol-4-yl)amino)propyl)propanamide] | 322 | 0.95 | 56.4
7 | FC(F)(F)c1ccc2[nH]c(CNCCCCOCCNc3cc(-c4cnoc4)cc4[nH]nnc34)cc2c1 [Example 143, 6-(isoxazol-4-yl)-N-(2-(4-(((5-(trifluoromethyl)-1H-indol-2-yl)methyl)amino)butoxy)ethyl)-1H-benzo[d][1,2,3]triazol-4-amine] | 564 | 7.01 | 625
8 | OCc1cc(F)cc(CNCCCCOC2CN(c3cc(-c4cnoc4)cc4[nH]ncc34)C2)c1 [Example 138, (3-fluoro-5-(((4-((1-(6-(isoxazol-4-yl)-1H-indazol-4-yl)azetidin-3-yl)oxy)butyl)amino)methyl)phenyl)methanol] | 5920 | 33.7 | 115
9 | O=C(CCNCc1ccc(OC(F)(F)F)c(Cl)c1)NCCCNc1cc(-c2ccncc2)c(Cl)c2[nH]ncc12 [Example 158, 3-((3-chloro-4-(trifluoromethoxy)benzyl)amino)-N-(3-((7-chloro-6-(pyridin-4-yl)-1H-indazol-4-yl)amino)propyl)propanamide] | 738 | 11 | 614
10 | COC(=O)c1cc(NCCOCCCCNCc2cc3cc(C(F)(F)F)ccc3[nH]2)c2cn[nH]c2c1 [Example 84, methyl4-((2-(4-(((5-(trifluoromethyl)-1H-indol-2-yl)methyl)amino)butoxy)ethyl)amino)-1H-indazole-6-carboxylate] | 36500 | 395 | 10500
11 | O=C(CCNCc1ccc(OC(F)(F)F)c(Cl)c1)NCCCNc1cccc2[nH]ncc12 [Example 163, N-(3-((1H-indazol-4-yl)amino)propyl)-3-((3-chloro-4-(trifluoromethoxy)benzyl)amino)propanamide] | 26800 | 217 | 6570
12 | N#CCc1cc(CNCCCCOC2CN(c3cc(-c4ccnnc4)cc4[nH]ncc34)C2)cc(C(F)(F)F)c1 [Example 114, 2-(3-(((4-((1-(6-(pyridazin-4-yl)-1H-indazol-4-yl)azetidin-3-yl)oxy)butyl)amino)methyl)-5-(trifluoromethyl)phenyl)acetonitrile] | 2520 | 50.5 | 2150
13 | OCc1cc(F)cc(CNCCCCOC2CN(c3cc(-n4cnnc4)cc4[nH]ncc34)C2)c1 [Example 125, (3-(((4-((1-(6-(4H-1,2,4-triazol-4-yl)-1H-indazol-4-yl)azetidin-3-yl)oxy)butyl)amino)methyl)-5-fluorophenyl)methanol] | 49200 | 162 | 152
14 | CN(CCCNc1cc(-n2cnnc2)cc2[nH]ncc12)C(=O)CCNCc1ccc(OC(F)(F)F)c(Cl)c1 [Example 20, N-(3-((6-(4H-1,2,4-triazol-4-yl)-1H-indazol-4-yl)amino)propyl)-3-((3-chloro-4-(trifluoromethoxy)benzyl)amino)-N-methylpropanamide] | 3300 | 23.5 | 158
15 | O=C(O)CCc1cc(NCCOCCCCNCc2cc(F)c(OC(F)(F)F)c(F)c2)c2cn[nH]c2c1 [Example 201, 3-(4-((2-(4-((3,5-difluoro-4-(trifluoromethoxy)benzyl)amino)butoxy)ethyl)amino)-1H-indazol-6-yl)propanoic acid] | 142 | 0.87 | 7830
16 | O=C(CCNCc1ccc(-c2ccccc2)c(Cl)c1)NCCCNc1cc(C2CCOCC2)cc2[nH]ncc12 [Example 90, 3-(((2-chloro-[1,1′-biphenyl]-4-yl)methyl)amino)-N-(3-((6-(tetrahydro-2H-pyran-4-yl)-1H-indazol-4-yl)amino)propyl)propanamide] | 10600 | 212 | 8780
17 | O=C(O)c1cc(NCCCCNCCCCNCc2ccc(-c3ccccc3)c(Cl)c2)c2cn[nH]c2c1 [Example 60, 4-((4-((4-(((2-chloro-[1,1′-biphenyl]-4-yl)methyl)amino)butyl)amino)butyl)amino)-1H-indazole-6-carboxylic acid] | – | 215 | 30200
